Measured values taken from patent US20150087004A1, “Microfabricated 3D Cell Culture System” (The Trustees of the University of Pennsylvania, priority 2012, published 2015).

System: Human umbilical vein endothelial cells (HUVECs)
Experiment: Pro-angiogenic factor screening: directed invasion and sprouting from endothelialized parent vessel in 3D cell culture device
Assay type: cell-based
Settings: for EC invasion into the matrix (single cell or collective cell invasion): factor added individually to source channel, over four days, 75 ng/mL (S1P 500 nM); for mode of cell migration / sprouting response: factor or cocktail in source channel, gradient across collagen matrix
Text: Examination the processes of angiogenic invasion and sprouting from an existing vessel in accordance with the disclosed subject matter will be described, with reference to FIG. 11A-D through FIG. 14A-F, for purpose of illustration and not limitation. Generally, a device in accordance with an embodiment of the disclosed subject matter can be prepared with an endothelium lining a cylindrical channel, surrounded by matrix, and exposed to a gradient of angiogenic factors emanating from a parallel source channel 150a. The device can be assembled by casting Type I collagen into a PDMS mold/gasket with two parallel needles held across the casting chamber. Upon collagen polymerization, the needles can be extracted to create hollow cylindrical channels in the collagen matrix 160. Endothelial cells (ECs) can be injected into one of the channels, allowing them to attach on the interior wall and form a confluent endothelium or “parent vessel” 150a. Flow can be maintained through both channels and media containing angiogenic factors can subsequently be added to the second channel to establish a gradient across the collagen matrix to the endothelium, as illustrated in FIG. 11B.
In a first example, the impact of various pro-angiogenic factors on directed invasion and sprouting from the parent vessel is examined. Six common factors associated with angiogenesis in the literature were selected: basic fibroblast growth factor (bFGF), hepatocyte growth factor (HGF), vascular endothelial growth factor (VEGF), monocyte chemotactic protein-1 (MCP-1), sphingosine-1-phosphate (S1P), and phorbol 12-myristate 13-acetate (PMA). After these factors were added individually to the non-endothelialized source channel, phase-contrast and confocal microscopy were used to assess the organization and development of EC invasion over four days.
In connection with the examples described herein, an exemplary device in accordance with the disclosed subject matter was fabricated from two patterned layers of poly(dimethylsiloxane) (PDMS; Sylgard 184; Dow-Corning) bonded to each other and sealed against a glass substrate (e.g., as depicted in FIG. 11A). The two PDMS layers were cast or double-cast from templates originally generated using standard photolithography of SU-8 on silicon wafers. To assemble the device, the bottom layer was first sealed to a glass coverslip. The top and bottom layers were then treated with oxygen plasma, bonded together, and cured at 110° C. overnight. Assembled devices then were treated with oxygen plasma, immersed in 0.1 mg/ml poly-L-lysine (Sigma) for 1 hr, 1% glutaraldehyde (Sigma) for 1.5 hr, washed several times with ddH2O, sterilized with UV light for 15 min, and soaked in 70% ethanol for 1 hr. To mold cylindrical channels, two 400 μm diameter acupuncture needles (Hwato) were inserted into parallel grooves at the top of the bottom layer and through the middle rectangular chamber approximately 200 μm above the glass coverslip surface. Rat tail collagen type I (2.5 mg/ml; BD Biosciences) was pipetted into the middle chamber and allowed to polymerize at 37° C. for 30 min. Excess collagen was subsequently aspirated from the fluid reservoirs feeding from the middle chamber. Devices were then covered with EGM-2 (Lonza) before the needles were extracted as described herein.
Cells were cultured and seeded in accordance with the disclosed subject matter into the device described in connection with the first example. Human umbilical vein endothelial cells (HUVECs) (Lonza) and human microvascular endothelial cells (HMVECs) (Lonza) were cultured in EGM-2 and EGM-2MV, respectively.

For `CCCCCCCCCCCCCC(=O)O[C@@H]1[C@@H](C)[C@@]2(O)[C@@H](C=C(CO)C[C@]3(O)C(=O)C(C)=C[C@@H]23)[C@@H]2C(C)(C)[C@]12OC(C)=O` [PMA, phorbol 12-myristate 13-acetate], the “EC invasion into the matrix (single cell or collective cell invasion)” value (from here on “EC invasion into the matrix”) was “substantial directed invasion” and the “mode of cell migration / sprouting response” value was “collective cell migration that manifested itself in the form of sparse, long, multi-cellular sprouts”.

With `CCCCCCCCCCCCC/C=C/[C@@H](O)[C@@H](N)COP(=O)(O)O` [S1P, sphingosine-1-phosphate] the “EC invasion into the matrix” value was “substantial directed invasion” and the “mode of cell migration / sprouting response” value was “chemotactic migration primarily of single cells”.

basic fibroblast growth factor [bFGF] was tested, and the “EC invasion into the matrix” value was “did not induce significant invasion”.

In the case of hepatocyte growth factor [HGF], the “EC invasion into the matrix” value is reported as “did not induce significant invasion”.

In the case of monocyte chemotactic protein-1 [MCP-1], the “EC invasion into the matrix” value is reported as “did not induce significant invasion”.

With “vascular endothelial growth factor [VEGF]” the “EC invasion into the matrix” value was “did not induce significant invasion”.
